# Experiments:
# [1] = target: T1, E2C-I159C hDAT (C90A/C306A/I159C) (Homo sapiens, UniProt Q01959, C306A/C90A/I159C); parameters: method as in Loland et al. [2004], [2008]; conditions: 0.5 mM MTSET for 10 min; ref Loland et al. [2004], [2008]; cited from earlier work
# T1 construct: expressed in transfected cells; host or cells: HEK293 cells, transient, pcDNA3.1+
# T1 sequence (Q01959 1-620 C90A/I159C/C306A): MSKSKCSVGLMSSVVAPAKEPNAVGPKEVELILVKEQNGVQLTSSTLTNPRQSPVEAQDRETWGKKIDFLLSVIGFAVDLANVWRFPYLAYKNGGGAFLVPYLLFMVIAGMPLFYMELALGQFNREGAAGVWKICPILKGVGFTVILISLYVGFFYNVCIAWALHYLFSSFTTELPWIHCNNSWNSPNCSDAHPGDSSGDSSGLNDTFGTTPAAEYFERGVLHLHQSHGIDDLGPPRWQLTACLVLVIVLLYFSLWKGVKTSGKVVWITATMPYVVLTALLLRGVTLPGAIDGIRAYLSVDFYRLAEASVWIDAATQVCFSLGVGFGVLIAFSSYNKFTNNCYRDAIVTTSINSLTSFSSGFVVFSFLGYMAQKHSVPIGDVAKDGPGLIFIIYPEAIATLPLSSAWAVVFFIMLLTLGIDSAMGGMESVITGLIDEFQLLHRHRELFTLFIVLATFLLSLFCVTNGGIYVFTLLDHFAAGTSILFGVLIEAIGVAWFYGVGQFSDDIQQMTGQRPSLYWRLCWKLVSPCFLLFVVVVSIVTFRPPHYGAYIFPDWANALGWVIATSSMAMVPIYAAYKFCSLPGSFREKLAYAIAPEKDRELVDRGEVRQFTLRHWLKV
# [2] = target: T1, E2C-I159C hDAT (C90A/C306A/I159C); test: MTSET assay, [3H]DA uptake in HEK293 cells; assay type: cell-based
# From the text: All mutants on hDAT were generated based on the predictions made using our computational model, as described previously using site-directed mutagenesis based on the wild-type hDAT (WT hDAT) sequence (NCBI, cDNA clone MGC: 164,608 IMAGE: 40,146,999) (Quizon et al. [2016]). The combination of hDAT mutations on Asp206 and His547 (Aspartic acid 206 to leucine and histidine 547 to alanine, D206L/H547A) were predicted to eliminate two hydrogen bonds between Tat and hDAT. In addition, the combination of mutations on Tyr88, Asp206, and His547 (tyrosine88 to phenylalanine and aspartic acid 206 to leucine and histidine 547 to alanine, Y88F/D206L/H547A) were predicted to eliminate three hydrogen bonds from the Tat-hDAT complex. Two extracellular cysteine90 and cysteine306 residues on WT hDAT were mutated to alanine as E2C hDAT (C90A/C306A hDAT), rendering the E2C hDAT MTSET-insensitive background (Pedersen et al. [2014]). A triple mutation of the two cysteine90 and 306 residues to alanine and […] to cysteine on WT hDAT was generated as E2C-I159C hDAT (C90A/C306A/I159C) for MTSET-sensitive construct. A combination of C90A/C306A/H547A was generated as E2C/H547A hDAT for MTSET-insensitive control for H547A. To determine whether H547A-enhanced DA transport is mediated by changing transporter conformation, two combinations of C90A/C306A/I159C/H547A and C90A/C306A/I159A/H547A were generated as E2C-I159C/H547A and E2C-I159A/H547A for positive and negative controls for MTSET sensitive background, respectively. Synthetic cDNA encoding hDAT subcloned into pcDNA3.1+ (provided by Dr. Haley E Melikian, University of Massachusetts) was used as a template to generate mutants using site-directed mutagenesis performed by GENEWIZ (South Plainfield, NJ). DNA sequencing was also performed by GENEWIZ to confirm the sequences of the mutant constructs. Plasmid DNA were propagated and purified using the Qiagen Hi-speed maxi prep plasmid DNA isolation kit (Qiagen, Valencia, CA, USA).
# This assay was performed based on the previous report with minor modifications (Loland et al. [2004], [2008]). First, we generated five WT hDAT based plasmid construct for MTSET-insensitive or sensitive background as we described above. HEK293 cells were grown in poly-d-lysine coated plates at a density of 1 × 10^5 cells/cm^2 were transfected with different E2C- associated hDAT background constructs: E2C hDAT, E2C-I159C hDAT, E2C/H547A hDAT, E2C-I159C/H547A or E2C-I159A/H547A. Twenty-four hours after the transfection, cells were washed twice with 1× KRH buffer, and preincubated with or without the presence of 10 µM nomifensine (for non-specific uptake) and MTSET for 10 min at room temperature. MTSET at 1 mM final concentration was chosen based on a pilot study on optimizing MTSET concentrations (0.1, 0.5 or 1.0 mM). […] Because MTSET is easily hydrolyzed in solution, the amount needed for a 10 × stock was weighed out and dissolved in 1 × KRH buffer just right before adding to the assigned wells, for a 10-fold dilution (final concentration of 1 mM in final volume of 250 µl). […] Cells were immediately washed twice with ice-cold 1 × KRH buffer to terminate the reaction and were lysed rapidly with the addition of 1 % SDS. Cell lysates were collected after incubation for 1 h at room temperature and radioactivity was determined the next day.
smiles,measurement,setting,value
"C[N+](C)(C)CCSS(C)(=O)=O [MTSET, [2-(trimethylammonium)ethyl]-methanethiosulfonate]",inhibition on E2C-I159C,[1],40%
same,inhibition of [3H]DA uptake relative to no MTSET addition,"[2]; 1 mM MTSET, 10 min, HEK293, pilot study Fig. 8a",55%
same,[3H]DA uptake in the presence of MTSET,"[2]; 1 mM MTSET, HEK293, Fig. 8b",46.0 ± 6.0
same,effect on [3H]DA uptake,"[2]; MTSET 0.1, 0.5, 1.0 mM, pilot study Fig. 8a",concentration-dependently inhibited
